# Experimental data: paper PMC6522510 (Nature Communications, 2019)
# Structures can show the parent of a compound that is named as a salt.
# Tests used:
# MV4-11 [1] = assay: Secondary dose-response HTS, Cell Titer Glo; type: cell-based, human; conditions: secondary high-throughput screen; MV4-11
# CMK [2] = assay: Secondary dose-response HTS, Cell Titer Glo; type: cell-based, human; conditions: secondary high-throughput screen; CMK
# M07e [3] = test system: M07e; parameters: species or system AML cell lines (8); Primary HTS, single concentration about 10 uM, Cell Titer Glo viability; log10 luminescence, per cent inhibition relative to cycloheximide control; conditions: 72 h, relative to cycloheximide control, log10 luminescence; inhibitor
# U937 [4] = test system: U937; parameters: species or system AML cell lines (8); Primary HTS, single concentration about 10 uM, Cell Titer Glo viability; log10 luminescence, per cent inhibition relative to cycloheximide control; conditions: 72 h, relative to cycloheximide control, log10 luminescence; inhibitor
# ML-2 = test system: ML-2; parameters: species or system AML cell lines (8); Primary HTS, single concentration about 10 uM, Cell Titer Glo viability; log10 luminescence, per cent inhibition relative to cycloheximide control; conditions: 72 h, relative to cycloheximide control, log10 luminescence; inhibitor
# MOLM-13 [5] = test system: MOLM-13; parameters: species or system AML cell lines (8); Primary HTS, single concentration about 10 uM, Cell Titer Glo viability; log10 luminescence, per cent inhibition relative to cycloheximide control; conditions: 72 h, relative to cycloheximide control, log10 luminescence; inhibitor
# CMS = test system: CMS; parameters: species or system AML cell lines (8); Primary HTS, single concentration about 10 uM, Cell Titer Glo viability; log10 luminescence, per cent inhibition relative to cycloheximide control; conditions: 72 h, relative to cycloheximide control, log10 luminescence; inhibitor
# CMK [6] = test system: CMK; parameters: species or system AML cell lines (8); Primary HTS, single concentration about 10 uM, Cell Titer Glo viability; log10 luminescence, per cent inhibition relative to cycloheximide control; conditions: 72 h, relative to cycloheximide control, log10 luminescence; inhibitor
# CHRF288-11 = test system: CHRF288-11; parameters: species or system AML cell lines (8); Primary HTS, single concentration about 10 uM, Cell Titer Glo viability; log10 luminescence, per cent inhibition relative to cycloheximide control; conditions: 72 h, relative to cycloheximide control, log10 luminescence; inhibitor
# MV4-11 [7] = test system: MV4-11; parameters: species or system AML cell lines (8); Primary HTS, single concentration about 10 uM, Cell Titer Glo viability; log10 luminescence, per cent inhibition relative to cycloheximide control; conditions: 72 h, relative to cycloheximide control, log10 luminescence; inhibitor
# U937 [8] = assay: Secondary dose-response HTS, Cell Titer Glo; type: cell-based, human; conditions: Homo sapiens, U-937; secondary high-throughput screen; U937; read-out: average effective concentration, U937
# MOLM-13 [9] = assay: Secondary dose-response HTS, Cell Titer Glo; type: cell-based, human; conditions: Homo sapiens; secondary high-throughput screen; MOLM-13; read-out: average effective concentration, MOLM-13
# ML2 = assay: Secondary dose-response HTS, Cell Titer Glo; type: cell-based, human; conditions: Homo sapiens; secondary high-throughput screen; ML-2; read-out: average effective concentration, ML-2
# MV4-11 [10] = assay: cells; parameters: species or system AML cell lines (8); Secondary HTS, 10-point dose-response in triplicate, Cell Titer Glo viability, four-parameter fit EC50; conditions: Homo sapiens, MV4-11, 72 h, read-out: MV4-11
# M07e [11] = assay: cells; parameters: species or system AML cell lines (8); Secondary HTS, 10-point dose-response in triplicate, Cell Titer Glo viability, four-parameter fit EC50; conditions: M-07e, 72 h, read-out: M07e
SMILES,"average effective concentration, MV4-11 (MV4-11 [1])","average effective concentration, CMK (CMK [2])",M07e %inh (M07e [3]) [%],U937 %inh (U937 [4]) [%],ML-2 %inh (ML-2) [%],MOLM-13 %inh (MOLM-13 [5]) [%],CMS %inh (CMS) [%],CMK %inh (CMK [6]) [%],CHRF288-11 %inh (CHRF288-11) [%],MV4-11 %inh (MV4-11 [7]) [%],EC50 (U937 [8]) [µM],EC50 (MOLM-13 [9]) [µM],EC50 (ML2) [µM],EC50 (MV4-11 [10]) [µM],EC50 (M07e [11]) [µM]
COc1ccc([C@@]23Oc4cc(OC)cc(OC)c4[C@]2(O)[C@H](O)[C@H](C(=O)N(C)C)[C@H]3c2ccccc2)cc1 [ROCAGLAMIDE A],Inactive,–,–,–,–,–,–,–,–,–,–,–,–,–,–
Cc1cc(Nc2ccc(NC(=O)c3ccc(Nc4ccnc5ccccc45)cc3)cc2)nc(N)n1 [SGI-1027],–,Inactive,–,–,–,–,–,–,–,–,–,–,–,–,–
NC(CCC(=O)NOC(=O)c1ccccc1)C(=O)N1CCCC1 (stereo not shown) [SJ000773150-1],–,–,3.014,-0.8595,1.208,1.337,-1.088,-2.389,-3.643,-0.09979,–,–,–,–,–
"Cc1c[nH]c(/C=C2\C(=O)Nc3ccccc32)c1CCC(=O)O [SJ000773151-1, SU 5402 |]",–,–,7.079,-1.966,-0.6671,64.04,2.629,3.453,8.965,45.76,–,–,–,–,–
"NC(=O)c1cc(-c2ccc(Cl)cc2)cc(-c2ccc(S(N)(=O)=O)cc2)c1N [SJ000773162-1, IKK INHIBITOR XII]",–,–,-0.482,5.575,2.717,3.294,0.8646,7.074,5.412,6.438,–,–,–,–,–
"O=C(N/N=C/c1coc2ccccc2c1=O)c1cccnc1 [SJ000773164-1, STAT5 INHIBITOR]",–,–,-2.508,1.718,0.5689,0.6226,-3.081,0.4302,2.609,5.196,–,–,–,–,–
"CCOC(=O)c1c(C)[nH]c(/C=C2\C(=O)Nc3ccccc32)c1C [SJ000773165-1, VEGFR2 KINASE INHIBITOR I]",–,–,-1.094,-1.551,-1.978,14.97,-2.877,1.896,3.3,4.438,–,–,–,–,–
"O=C1Cc2c([nH]c3ccc(Br)cc23)-c2ncccc2N1 [SJ000773177-1, 1-AZAKENPAULLONE]",–,–,0.4716,4.514,3.703,1.556,11.6,-2.288,3.099,9.942,–,–,–,–,–
"Nc1[nH]nc2nnc(-c3c(-c4ccccc4)nn4ccccc34)cc12 [SJ000773182-1, FR 180204]",–,–,4.808,0.5636,1.644,10.92,0.8706,2.552,4.206,11.54,–,–,–,–,–
"O=C(O)c1cc2cc(O)c(O)cc2c(C(=O)c2ccc(O)c(O)c2)n1 [SJ000773184-1, NBI-31772]",–,–,0.05281,2.592,4.963,2.784,0.1786,20.66,-3.882,0.9533,–,–,–,–,–
"N#Cc1cnc2cnc(NCc3cccnc3)cc2c1Nc1ccc(F)c(Cl)c1 [SJ000773185-1, TPL2 KINASE INHIBITOR]",–,–,3.597,7.932,-0.1066,88.46,-1.042,12.32,6.987,3.7,–,–,–,–,–
O=C(Nc1ccccc1-c1cn2c(CN3CCNCC3)csc2n1)c1cnc2ccccc2n1 [SRT1720],Inactive,Inactive,–,–,–,–,–,–,–,–,–,–,–,–,–
CN(C)CCCNc1c2ccccc2nc2c1[nH]c1ccccc12 [SYUIQ-5],Inactive,Inactive,–,–,–,–,–,–,–,–,–,–,–,–,–
"CNC(=O)c1cc(Oc2ccc(NC(=O)Nc3ccc(Cl)c(C(F)(F)F)c3)cc2)ccn1 [Sorafenib, reference compound]",–,387,–,–,–,–,–,–,–,–,> 10,0.018,> 10,–,–
CC/C(=C(\c1ccccc1)c1ccc(OCCN(C)C)cc1)c1ccccc1 [TAMOXIFEN CITRATE],–,–,–,–,–,–,–,–,–,–,–,–,–,> 10,–
COc1cc(OC)c(/C=C/S(=O)(=O)Cc2ccc(OC)c(NCC(=O)O)c2)c(OC)c1 [rigosertib],–,–,–,–,–,–,–,–,–,–,–,–,–,0.0124,> 10
